# Experiments:
# [1] = test system: p53 transactivation in U2SO; experiment: p53 transactivation in tumour cell line after UV damage of DNA in presence of peptide (FIG. 5); assay type: cell-based, human; conditions: U2SO cells after UV damage of DNA
# Description: FIG. 5 illustrates the stimulation of p53 transactivation in a human tumour cell line U2SO after UV damage of DNA in the presence of peptide DGPEETD (SEQ ID NO: 2);
# Bax promoter = experiment: Stimulation of the Bax promoter by p53 after incubation with peptides (FIG. 4); assay type: cell-based; conditions: after incubation with peptide
# Description: FIG. 4 illustrates the stimulation of the Bax promoter by p53 after incubation with various peptides, in particular DGPEETD (SEQ ID NO: 2);
# For transcriptional assay, 5×10^5 Saos-2 cells were plated 24 hr prior to transfection in 6 cm dishes. Various combinations of plasmid DNA were transfected using the following amounts. All transfection assays contain 1 μg of reporter plasmid. 50 ng of wild type human p53, 100 ng of plasmid expressing C. elegans p53, 4 μg of ASPP2, or 8 μg of ASPP1, 5 μg of human iASPP or 7.5 μg of Ce-iASPP were used as indicated. After transfection, the cells were lysed in Reporter Lysis Buffer (Promega, Wis., USA) 16-24 hr post-wash and assayed using the Luciferase Assay kit (Promega, Wis., USA). The fold activation of a particular reporter was determined by the activity of the transfected plasmid above the activity of vector alone. The fold increase of p53 transactivation activity by ASPP was obtained by the activity p53 in combination with ASPP divided by the activity of p53 alone on the promoters used in each assay.
substance,measurement,setting,value
DGPEETD (p53 inhibitor peptide),stimulation of p53 transactivation,[1],stimulation
same,stimulation of the Bax promoter by p53,Bax promoter,stimulation

# Reference: patent publication US7745571B2, “Peptide inhibitors of IASPP” (Ludwig Institute for Cancer Research, priority 2002, dated 2010)
